# Data as given in patent US20050096308A1, “Antibacterial agents” (priority 2003, published 2005).
# Columns and labels:
# Assay in all cases: Antibacterial assay (Test A), standard microtitration, MIC
# Format in all cases: cell-based
# M. catarrhalis BC-3531 = details: Moraxella catarrhalis, BC3531; Gram Negative Bacteria; strain BC-3531; read-out: Minimum Inhibitory Concentrations M. catarrhalis BC-3531
# Description: (§1) Test A—Antibacterial Assays
# (§2) The compounds of the present invention were tested against an assortment of Gram-negative and Gram-positive organisms using standard microtitration techniques (Cohen et. al., Antimicrob., 1985;28:766; Heifetz, et. al., Antimicrob., 1974;6:124).
# H. influenzae HI-3542 = details: Haemophilus influenzae, HI3542; Gram Negative Bacteria; strain HI-3542; read-out: Minimum Inhibitory Concentrations H. influenzae HI-3542
# Description: as §1, §2
# E. coli MC4100 = details: Escherichia coli; Gram Negative Bacteria; strain MC4100; read-out: Minimum Inhibitory Concentrations E. coli MC4100
# Description: as §1, §2
# E. faecalis MGH-2 = details: Enterococcus faecalis, MGH2; Gram Positive Bacteria; strain MGH-2; read-out: Minimum Inhibitory Concentrations E. faecalis MGH-2
# Description: as §1, §2
# S. aureus UC-76 = details: Staphylococcus aureus, UC76; Gram Positive Bacteria; strain UC-76; read-out: Minimum Inhibitory Concentrations S. aureus UC-76
# Description: as §1, §2
# S pyogenes C203 = details: Gram Positive Bacteria; strain C203; read-out: Minimum Inhibitory Concentrations S pyogenes C203
# Description: as §1, §2
SMILES,MIC (M. catarrhalis BC-3531) [µg/mL],MIC (H. influenzae HI-3542) [µg/mL],MIC (E. coli MC4100) [µg/mL],MIC (E. faecalis MGH-2) [µg/mL],MIC (S. aureus UC-76) [µg/mL],MIC (S pyogenes C203) [µg/mL]
Nc1nc(-n2c(=O)n(N)c(=O)c3cc(F)c(N4CC(O)C4)c(Cl)c32)c(F)cc1F [drawing 117],4,1,64,–,–,–
Cc1c(N2CC(O)C2)c(F)cc2c(=O)n(N)c(=O)n(C3CC3)c12 [drawing 118],1,32,1,–,–,–
Cc1c(N2CC(CCO)C2)c(F)cc2c(=O)n(N)c(=O)n(C3CC3)c12 [drawing 119],4,4,32,–,–,–
Nn1c(=O)c2cc(F)c(N3CC(O)(C4CC4)C3)c(Cl)c2n(C2CC2)c1=O [drawing 120],0.03,0.03,0.002,–,–,–
Nn1c(=O)c2cc(F)c(N3CC(O)(c4ccc(F)cc4)C3)c(Cl)c2n(C2CC2)c1=O [drawing 121],16,32,64,–,–,–
CC(C)C1(O)CN(c2c(F)cc3c(=O)n(N)c(=O)n(C4CC4)c3c2Cl)C1 [drawing 122],32,32,64,–,–,–
Nc1nc(-n2c(=O)n(N)c(=O)c3cc(F)c(N4CC(O)C4)c(Cl)c32)c(F)cc1F [drawing 123],–,–,–,16,4,16
Cc1c(N2CC(O)C2)c(F)cc2c(=O)n(N)c(=O)n(C3CC3)c12 [drawing 124],–,–,–,32,1,16
Cc1c(N2CC(CCO)C2)c(F)cc2c(=O)n(N)c(=O)n(C3CC3)c12 [drawing 125],–,–,–,16,4,16
Nn1c(=O)c2cc(F)c(N3CC(O)(C4CC4)C3)c(Cl)c2n(C2CC2)c1=O [drawing 126],–,–,–,0.5,0.03,0.5
Nn1c(=O)c2cc(F)c(N3CC(O)(c4ccc(F)cc4)C3)c(Cl)c2n(C2CC2)c1=O [drawing 127],–,–,–,16,4,8
CC(C)C1(O)CN(c2c(F)cc3c(=O)n(N)c(=O)n(C4CC4)c3c2Cl)C1 [drawing 128],–,–,–,32,16,64
